The text below walks through data of patent publication US20190202836A1, “SELECTIVE DUAL INHIBITORS OF PI3 DELTA AND GAMMA PROTEIN KINASES” (Rhizen Pharmaceuticals SA, priority 2014, published 2019).

Where only a bound is given, the exact number is not on record here.

One series concerns the target PI3Kγ (Homo sapiens, UniProt P48736). Put plainly: Assay 4: fMLP induced CD63 expression in basophils from human whole blood. The series is classed as cell-based. On the set-up: endogenous in cells; host or cells: basophils in human whole blood. Particulars: n=1, read-out: IC50 for fMLP (PI3K γ), CD63 positive basophils. The method, then: (§1) PI3K δ and γ signaling in basophils manifested by an alteration of anti-FcεR1 or fMLP induced CD63 expression is a useful pharmacodynamic marker determined using the Flow2CAST® kit (Buhlmann Laboratories, Switzerland). The test procedure involves the following steps: • Mix the anti-coagulated blood sample by inverting the venipuncture tube several times; • Prepare fresh and pyrogen-free 3.5 ml polypropylene or polystyrene tubes suitable for Flow Cytometry measurements; • Add 49 μl of patient's whole blood to each tube; • Add 1 μl of 10% DMSO (background) or test compound (10% DMSO) to the assigned tubes and mix gently. Incubate at room temperature for 15 minutes; • Pipet 50 μl of the Stimulation buffer (background) or anti-FcεRI Ab or fMLP to each tube; • Add 100 μl of Stimulation Buffer to each tube; • Mix gently. Add 20 μl Staining Reagent (1:1 mix of FITC-CD63 and PE-CCR3) to each tube; • Mix gently, cover the tubes and incubate for 15 minutes at 37° C. in a water bath. […]
(§2) Percent CD63 positive cells within the gated basophil population were determined in different treatment groups and normalized to vehicle control.

The test system of series [1] is human whole blood B-cell proliferation (CD19). Put plainly: Assay 6B: Inhibition of LPS induced CD19 in human whole blood. The class given is cell-based. Particulars: diluted human whole blood, 72 hours, read-out: EC50, inhibition of LPS-induced human whole blood B-cell proliferation (CD19 expression). The method, then: The effect of Compound A1 on modulating B-cell receptor (BCR)-activated proliferation of human or mouse B-lymphocytes was determined. CD19 is a protein present on B cells from the earliest recognizable B-lineage cells during development to B-cell blasts but is however lost on maturation to plasma cells. LPS is an endotoxin and a major component of environmental microbes with a potent mitogenic activity on B-cells via the […].
Diluted human whole blood was treated with DMSO or desired concentrations of Compound A1. Samples were induced with LPS 15 minutes after addition of compound and incubated for 72 hours at 37° C. and 5% CO2. Cells positive for CD45 and CD19 were determined by flow cytometry and data are expressed as percentage CD19 positive cells in the total population.

The next series relates to Female Wistar rats. Nature of the series: Assay 7: Lipopolysaccharide induced pulmonary neutrophilia in female Wistar rat model. The class given is in vivo. Particulars: 10 mg/kg, oral, LPS intratracheally, BAL fluid 6 hours after LPS. The method, then: After the quarantine period, fasted animals were randomized and divided into various groups depending on their body weights. The test compound (Compound A1) was prepared as a suspension in a vehicle consisting of 0.5% methylcellulose in which Tween 80 as a suspending agent. The compound or vehicle was administered by oral gavage at a volume of 10 mL/kg. Female Wistar rats were anaesthetized with ketamine and LPS solution was administered intratracheally one hour after compound administration at a dose of 1 mg/kg. 6 hours after LPS instillation, animals were exsanguinated under anaesthesia, and then the trachea was cannulated and the lungs were lavaged with 5 ml aliquots of heparinised PBS (1 unit/ml) four times through a tracheal cannula (total volume 20 mL). Bronchoalveolar lavage (BAL) fluid was stored at 2-8° C. until assayed for total cell and differential leukocyte count. Bronchioalveolar fluid was centrifuged (500×g for 10 minutes) and the resulting cell pellet was resuspended in 0.5 ml of heparinised saline. The total numbers of white blood cells were determined in BAL fluid or blood by using a blood cell counter and was adjusted to 1×10^6 cell/ml. Differential cell count was calculated manually. […] The number of each cell type among 300 white blood cells in the cell smear was determined and expressed as a percentage. The number of […] in each BALf or blood was calculated.

For another series, the system named is male Balb/c mice. Put plainly: Assay 13: Imiquimod induced plaque psoriasis in Balb/c mice model. Conditions: imiquimod induced psoriasis, 3, 10, 30 mg/kg oral, compared to the control group. The class given is in vivo. The method, then: Imiquimod (IMQ) is a ligand for TLR7 and TLR8, originally used for the treatment of non-melanoma skin cancers. […] Animals (male Balb/c mice) were acclimatized for seven days prior to the start of the experiment. Animals were randomly distributed to various groups based on their body weights. On day 0, the back skin of the mice was shaved by topical application of hair removal cream. On day 1, mice were administered the test compound or vehicle by the oral route and after 1 hour the […] received a topical application of 62.5 mg of commercially available IMQ cream (5%; Beselna Cream; Mochida Pharmaceuticals, Tokyo, Japan) on the shaved back skin. The mice were treated with topical application of imiquimod for the next 5 consecutive days, one hour after test compound or vehicle administration. Animals were allowed to dry for one hour before returning to their cages after topical application on every day. Four hours after the final application of IMQ cream, the mice were killed and skin samples were obtained. Back skin thickness was measured using dial thickness gauge. After measuring skin thickness, skin samples were fixed in 10% neutral buffered formalin solution and embedded in paraffin. Deparaffinised sections were stained with hematoxylin-eosin (HE). Epidermal thickness was quantified by averaging the values of five independent fields per section. To score the severity of inflammation of the back skin, an objective scoring system was used based on the human clinical Psoriasis Area and Severity Index (PASI). Erythema, scaling, and thickening were scored independently on a scale from 0 to 4: 0=none; 1=slight; 2=moderate; 3=marked; and 4=very marked.

For a further series, the target named is PI3Kδ (Homo sapiens, UniProt O00329). Put plainly: Assay 4: anti-FcεR1 induced CD63 expression in basophils from human whole blood. The class given is cell-based. Particulars: n=1, read-out: EC50 for FcεR1 (PI3K δ), CD63 positive basophils. On the set-up: endogenous in cells; host or cells: basophils in human whole blood. The method, then: as §1, §2
Series [2] is described as follows: Metabolic stability in monkey liver microsomes. The class given is in vitro ADME. The procedure:
Metabolic stability studies were conducted on Compounds A, A1, and A2 as well as Example 128 of WO 2012/151525 using mouse, rat, dog, monkey, and human liver microsomes. The protocol for the studies with mouse, rat, and human liver microsomes (all from BD Gentest, USA) is provided below. 0.4 mg protein was preincubated with 2 mM NADPH (cofactor) in phosphate buffer (pH-7.4) for 15 minutes at 37° C. and then added with 1 μM test item and incubated further for 60 minutes in triplicate. The reaction mixture was terminated with methanol containing an internal standard and centrifuged further to analyze the test item remaining in the supernatant by LC-MS/MS. The percent parent compound remaining was calculated in comparison with similar samples terminated at 0 minutes.
(In general: Microsomes from liver hold many membrane-bound enzymes, among them those of drug oxidation.)

Chain of PI3Kδ (O00329 whole entry): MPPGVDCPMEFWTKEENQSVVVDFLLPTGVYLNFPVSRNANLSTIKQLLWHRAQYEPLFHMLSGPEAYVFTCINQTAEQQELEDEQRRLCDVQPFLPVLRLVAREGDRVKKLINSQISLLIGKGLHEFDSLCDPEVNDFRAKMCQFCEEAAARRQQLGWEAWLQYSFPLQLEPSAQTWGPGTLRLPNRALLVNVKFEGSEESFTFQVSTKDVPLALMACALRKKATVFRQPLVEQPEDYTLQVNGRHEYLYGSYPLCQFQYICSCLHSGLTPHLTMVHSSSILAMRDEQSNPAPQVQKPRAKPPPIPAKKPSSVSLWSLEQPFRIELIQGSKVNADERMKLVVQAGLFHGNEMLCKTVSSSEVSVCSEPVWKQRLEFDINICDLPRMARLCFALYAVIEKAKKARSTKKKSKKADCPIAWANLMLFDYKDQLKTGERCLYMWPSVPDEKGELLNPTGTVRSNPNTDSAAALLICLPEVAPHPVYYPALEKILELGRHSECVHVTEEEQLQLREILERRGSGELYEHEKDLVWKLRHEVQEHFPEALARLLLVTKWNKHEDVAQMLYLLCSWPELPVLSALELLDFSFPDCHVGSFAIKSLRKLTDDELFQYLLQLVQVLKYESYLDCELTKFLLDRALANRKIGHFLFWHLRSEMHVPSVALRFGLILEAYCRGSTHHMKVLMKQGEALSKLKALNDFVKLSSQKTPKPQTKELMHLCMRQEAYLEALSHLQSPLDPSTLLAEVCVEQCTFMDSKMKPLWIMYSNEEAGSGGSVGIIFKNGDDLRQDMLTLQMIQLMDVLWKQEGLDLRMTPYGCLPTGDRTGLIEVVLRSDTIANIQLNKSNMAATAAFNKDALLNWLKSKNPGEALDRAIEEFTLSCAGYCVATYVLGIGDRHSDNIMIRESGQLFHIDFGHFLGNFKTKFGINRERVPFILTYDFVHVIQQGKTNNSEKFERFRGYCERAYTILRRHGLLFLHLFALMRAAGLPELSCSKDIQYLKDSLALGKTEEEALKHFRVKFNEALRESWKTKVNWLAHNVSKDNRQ
Chain of PI3Kδ (P27986 whole entry partner): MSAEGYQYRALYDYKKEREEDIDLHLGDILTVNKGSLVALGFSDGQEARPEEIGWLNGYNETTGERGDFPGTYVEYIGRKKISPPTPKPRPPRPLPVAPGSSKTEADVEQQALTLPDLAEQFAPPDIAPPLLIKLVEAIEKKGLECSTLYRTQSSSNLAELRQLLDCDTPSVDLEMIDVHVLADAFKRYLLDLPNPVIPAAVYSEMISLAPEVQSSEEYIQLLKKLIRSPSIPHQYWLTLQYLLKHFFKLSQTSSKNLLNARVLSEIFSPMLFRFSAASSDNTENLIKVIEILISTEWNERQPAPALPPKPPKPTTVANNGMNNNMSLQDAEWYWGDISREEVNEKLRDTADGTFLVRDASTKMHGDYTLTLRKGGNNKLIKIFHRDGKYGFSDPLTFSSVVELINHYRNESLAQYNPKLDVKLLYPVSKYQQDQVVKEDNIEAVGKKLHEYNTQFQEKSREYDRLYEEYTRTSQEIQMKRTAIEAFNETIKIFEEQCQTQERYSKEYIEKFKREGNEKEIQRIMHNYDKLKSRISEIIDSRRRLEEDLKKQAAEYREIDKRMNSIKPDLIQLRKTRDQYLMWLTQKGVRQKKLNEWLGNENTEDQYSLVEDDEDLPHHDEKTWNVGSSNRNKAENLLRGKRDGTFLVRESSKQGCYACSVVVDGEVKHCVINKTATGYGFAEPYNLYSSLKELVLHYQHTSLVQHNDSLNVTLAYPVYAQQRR
Chain of PI3Kγ (P48736 whole entry): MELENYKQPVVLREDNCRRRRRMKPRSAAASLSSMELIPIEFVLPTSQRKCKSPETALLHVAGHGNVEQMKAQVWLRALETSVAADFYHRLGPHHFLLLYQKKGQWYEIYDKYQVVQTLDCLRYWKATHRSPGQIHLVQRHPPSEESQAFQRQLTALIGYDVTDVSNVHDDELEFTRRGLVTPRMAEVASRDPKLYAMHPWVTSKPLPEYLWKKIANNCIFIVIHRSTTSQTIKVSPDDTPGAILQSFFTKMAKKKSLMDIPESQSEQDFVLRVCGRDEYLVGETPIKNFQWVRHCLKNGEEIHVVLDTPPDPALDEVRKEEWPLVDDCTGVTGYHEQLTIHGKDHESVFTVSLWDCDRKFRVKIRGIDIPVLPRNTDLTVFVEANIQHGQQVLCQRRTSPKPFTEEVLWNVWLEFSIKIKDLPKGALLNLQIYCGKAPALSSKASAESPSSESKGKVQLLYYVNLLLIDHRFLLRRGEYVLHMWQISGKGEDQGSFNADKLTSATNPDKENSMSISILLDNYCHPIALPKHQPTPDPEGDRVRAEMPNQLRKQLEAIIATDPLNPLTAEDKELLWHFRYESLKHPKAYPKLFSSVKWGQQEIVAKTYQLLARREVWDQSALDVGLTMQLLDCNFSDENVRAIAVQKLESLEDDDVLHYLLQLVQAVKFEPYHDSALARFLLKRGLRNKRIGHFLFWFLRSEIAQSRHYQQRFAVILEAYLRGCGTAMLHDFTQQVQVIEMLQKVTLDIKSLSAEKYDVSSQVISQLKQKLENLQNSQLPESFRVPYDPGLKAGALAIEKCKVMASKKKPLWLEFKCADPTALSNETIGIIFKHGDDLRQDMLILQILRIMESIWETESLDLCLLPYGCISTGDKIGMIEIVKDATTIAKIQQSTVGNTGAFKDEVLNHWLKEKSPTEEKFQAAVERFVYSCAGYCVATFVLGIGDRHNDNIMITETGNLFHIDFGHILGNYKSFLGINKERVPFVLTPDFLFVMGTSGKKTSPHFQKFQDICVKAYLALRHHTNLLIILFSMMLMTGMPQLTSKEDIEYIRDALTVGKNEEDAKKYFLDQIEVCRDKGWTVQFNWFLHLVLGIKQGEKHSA

For `COc1ccc(-c2nn([C@@H](C)c3oc4cccc(F)c4c(=O)c3-c3cccc(F)c3)c3ncnc(N)c23)cc1NS(C)(=O)=O` [Compound A1, (S)—N-(5-(4-amino-1-(1-(5-fluoro-3-(3-fluorophenyl)-4-oxo-4H-chromen-2-yl)ethyl)-1H-pyrazolo[3,4-d]pyrimidin-3-yl)-2-methoxyphenyl)methanesulfonamide], the IC50 on PI3Kγ was less than 70 nM. The EC50 in series [1] stood at 118 nM. In addition, the “inhibition of neutrophil infiltration into the lungs compared to the control group” value in the series with Female Wistar rats amounted to 65.29%. In addition, in the series on male Balb/c mice, the back skin thickness entry was “reduced”, the erythema entry is “reduced” and the scaling entry is given as “reduced”. The EC50 on PI3Kδ was less than 30 nM. In series [2], the “Metabolic stability in liver microsomes (percent parent compound remaining), Monkey” value was 78.8%.

Usually IC50 stands for the concentration needed to halve the response being measured.
